According to patent US7994185B2, “Benzene sulfonamide thiazole and oxazole compounds” (Glaxo Smith Kline LLC, priority 2008, dated 2011):
Structures can show the parent of a compound that is named as a salt. Where two headings read alike, the source gives them in different places.

What was measured:
[1] = system: Human melanoma cancer cells (SK-MEL-28); assay: Cell growth inhibition assay (CellTiter-Glo), SK-MEL-28; format: cell-based
[2] = target: T1, BRAFV600E full-length (amino acids 2-766) (Homo sapiens, UniProt P15056, V600E); assay: B-Raf Accelerated MEK ATPase assay (BRAMA); format: biochemical; details: categorized
T1 construct: His6-tagged BRAFV600E full-length (amino acids 2-766); His6; made in house; host or cells: baculovirus expression system (insect cells)
T1 sequence (P15056 2-766 V600E): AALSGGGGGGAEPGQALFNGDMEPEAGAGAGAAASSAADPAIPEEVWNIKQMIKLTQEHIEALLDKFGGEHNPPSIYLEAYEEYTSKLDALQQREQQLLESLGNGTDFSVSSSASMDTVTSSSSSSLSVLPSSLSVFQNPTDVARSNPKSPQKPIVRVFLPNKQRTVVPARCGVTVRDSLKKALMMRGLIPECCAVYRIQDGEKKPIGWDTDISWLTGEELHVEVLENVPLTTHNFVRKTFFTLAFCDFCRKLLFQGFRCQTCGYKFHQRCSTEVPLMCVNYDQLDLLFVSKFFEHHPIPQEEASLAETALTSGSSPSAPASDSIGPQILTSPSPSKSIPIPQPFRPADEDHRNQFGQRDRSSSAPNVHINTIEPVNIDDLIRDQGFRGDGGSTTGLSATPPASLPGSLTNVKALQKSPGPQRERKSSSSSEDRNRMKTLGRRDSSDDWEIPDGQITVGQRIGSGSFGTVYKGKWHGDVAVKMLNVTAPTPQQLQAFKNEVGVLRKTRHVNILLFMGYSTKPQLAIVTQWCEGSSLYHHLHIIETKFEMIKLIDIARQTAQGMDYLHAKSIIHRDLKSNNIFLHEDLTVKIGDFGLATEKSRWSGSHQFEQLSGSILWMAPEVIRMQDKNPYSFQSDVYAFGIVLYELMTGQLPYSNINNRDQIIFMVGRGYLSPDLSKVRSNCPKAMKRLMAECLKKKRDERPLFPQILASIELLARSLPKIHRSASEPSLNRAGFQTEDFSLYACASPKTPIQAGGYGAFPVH
How it was run: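 Coupled-enzyme readout: ADP generated by MEK-mediated ATP hydrolysis, uncoupled from ERK phosphorylation, is linked to NADH oxidation through pyruvate kinase and lactate dehydrogenase.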

[3] = system: Human colon tumor cells (Colo205); assay: Cell growth inhibition assay (CellTiter-Glo), Colo205; format: cell-based
How it was run: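 Colo205 (and SK-MEL-28) cells in RPMI with 10% FBS were exposed to 10-point 1:3 serial dilutions of compound at 0.2% final DMSO for 3 days at 37 °C. Total ATP, a surrogate for cell number, was read by CellTiter-Glo luminescence, with % growth inhibition relative to DMSO-treated wells.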

[4] = SK-MEL-28, 72 h, Table 3a, 3 days incubation, read-out: Activity in SK-MEL-28 Tumor Cells
[5] = SK-MEL-28, Table 3b, later runs, average for the one or more runs, categorized, read-out: IC50 for SK-MEL-28
[6] = B-Raf Activity, Table 1a, highest pIC50 for the one or more runs
[7] = Table 1b, later runs, average pIC50 for the one or more runs, read-out: B-Raf pIC50 (converted)
[8] = COLO 205, 72 h, Table 2a, 3 days incubation, read-out: Activity in Colo205 Tumor Cells
[9] = COLO 205, Table 2b, later runs, average for the one or more runs, categorized, read-out: IC50 for Colo205
[10] = B-Raf pIC50, Table 1b, later runs, average pIC50 for the one or more runs

CC(C)CNc1nccc(-c2sc(C(C)(C)C)nc2-c2cccc(NS(=O)(=O)c3cc(F)ccc3F)c2F)n1 [Example 92, N-[3-(2-(1,1-Dimethylethyl)-5-{2-[(2-methylpropyl)amino]-4-pyrimidinyl}-1,3-thiazol-4-yl)-2-fluorophenyl]-2,5-difluorobenzenesulfonamide]
IC50 [1, 4]: < 100 nM | IC50 [1, 5]: < 100 nM | IC50 [2, 6]: < 100 nM | IC50 [2, 7]: 3.16 to 31.6 nM | IC50 [3, 8]: < 100 nM | IC50 [3, 9]: < 100 nM

CC(C)CNc1nccc(-c2sc(C(C)(C)C)nc2-c2cccc(NS(=O)(=O)c3cc(F)ccc3F)c2)n1 [Example 3, N-[3-(2-(1,1-Dimethylethyl)-5-{2-[(2-methylpropyl)amino]-4-pyrimidinyl}-1,3-thiazol-4-yl)phenyl]-2,5-difluorobenzenesulfonamide]
IC50 [1, 4]: < 100 nM | IC50 [1, 5]: < 100 nM | IC50 [2, 6]: < 100 nM | IC50 [2, 7]: 3.16 to 31.6 nM | IC50 [3, 8]: < 100 nM | IC50 [3, 9]: < 100 nM

Nc1nccc(-c2sc(C3CCOCC3)nc2-c2cccc(NS(=O)(=O)c3cnccn3)c2F)n1 [Example 280, N-{3-[5-(2-amino-4-pyrimidinyl)-2-(tetrahydro-2H-pyran-4-yl)-1,3-thiazol-4-yl]-2-fluorophenyl}-2-pyrazinesulfonamide]
IC50 [1, 5]: 100 to 1000 nM | IC50 [2, 10]: ≤ 3.16 nM | IC50 [3, 9]: 100 to 1000 nM

Nc1nccc(-c2sc(N3CCOCC3)nc2-c2c(F)ccc(NS(=O)(=O)c3cc(F)ccc3F)c2F)n1 [Example 105, N-{3-[5-(2-Amino-4-pyrimidinyl)-2-(4-morpholinyl)-1,3-thiazol-4-yl]-2,4-difluorophenyl}-2,5-difluorobenzenesulfonamide]
IC50 [1, 4]: < 100 nM | IC50 [1, 5]: < 100 nM | IC50 [2, 6]: < 100 nM | IC50 [2, 10]: ≤ 3.16 nM | IC50 [3, 8]: < 100 nM | IC50 [3, 9]: < 100 nM

COCCNc1nccc(-c2sc(C(C)C)nc2-c2ccc(F)c(NS(=O)(=O)c3c(F)cccc3F)c2)n1 [Example 159]
IC50 [1, 4]: 100 to 1000 nM | IC50 [1, 5]: 100 to 1000 nM | IC50 [2, 6]: 100 to 1000 nM | IC50 [2, 10]: 31.6 to 1000 nM | IC50 [3, 8]: 100 to 1000 nM | IC50 [3, 9]: 100 to 1000 nM

CC(C)c1nc(-c2ccc(F)c(NS(=O)(=O)c3ccco3)c2)c(-c2ccnc(NCCS(C)(=O)=O)n2)s1 [Example 34, N-{2-Fluoro-5-[2-(1-methylethyl)-5-(2-{[2-(methylsulfonyl)ethyl]amino}-4-pyrimidinyl)-1,3-thiazol-4-yl]phenyl}-2-furansulfonamide trifluoroacetic acid salt]
IC50 [1, 4]: > 1000 nM | IC50 [1, 5]: 1000 to 10000 nM | IC50 [2, 6]: < 100 nM | IC50 [2, 7]: 3.16 to 31.6 nM | IC50 [3, 8]: > 1000 nM | IC50 [3, 9]: 1000 to 10000 nM

CC(C)CNc1nccc(-c2sc(C(C)C)nc2-c2cccc(NS(=O)(=O)c3c(F)cccc3F)c2F)n1 [Example 176]
IC50 [1, 4]: < 100 nM | IC50 [1, 5]: < 100 nM | IC50 [2, 6]: < 100 nM | IC50 [2, 10]: ≤ 3.16 nM | IC50 [3, 8]: < 100 nM | IC50 [3, 9]: < 100 nM

CC(C)c1nc(-c2cccc(NS(=O)(=O)c3cc(F)ccc3F)c2F)c(-c2ccnc(NCCN3CCCC3=O)n2)s1 [Example 190]
IC50 [1, 4]: < 100 nM | IC50 [1, 5]: < 100 nM | IC50 [2, 6]: < 100 nM | IC50 [2, 10]: ≤ 3.16 nM | IC50 [3, 8]: < 100 nM | IC50 [3, 9]: < 100 nM

Nc1nccc(-c2sc(C3CCCCC3)nc2-c2cccc(NS(=O)(=O)c3cc(F)ccc3F)c2F)n1 [Example 144]
IC50 [1, 4]: < 100 nM | IC50 [1, 5]: < 100 nM | IC50 [2, 6]: < 100 nM | IC50 [2, 10]: ≤ 3.16 nM | IC50 [3, 8]: < 100 nM | IC50 [3, 9]: < 100 nM

Cc1cccc(S(=O)(=O)Nc2cccc(-c3nc(C(C)(C)C)sc3-c3ccnc(N)n3)c2F)c1 [Example 147]
IC50 [1, 4]: 100 to 1000 nM | IC50 [1, 5]: 100 to 1000 nM | IC50 [2, 6]: < 100 nM | IC50 [2, 10]: 31.6 to 1000 nM | IC50 [3, 8]: 100 to 1000 nM | IC50 [3, 9]: 100 to 1000 nM

CC(=O)NCCCNc1nccc(-c2sc(C(C)C)nc2-c2cccc(NS(=O)(=O)c3cc(F)ccc3F)c2F)n1 [Example 194]
IC50 [1, 4]: < 100 nM | IC50 [1, 5]: < 100 nM | IC50 [2, 6]: < 100 nM | IC50 [2, 10]: ≤ 3.16 nM | IC50 [3, 8]: < 100 nM

O=S(=O)(Nc1cccc(-c2nc(N3CCOCC3)sc2-c2ccncn2)c1Cl)c1ccoc1 [Example 269, N-{2-chloro-3-[2-(4-morpholinyl)-5-(4-pyrimidinyl)-1,3-thiazol-4-yl]phenyl}-3-furansulfonamide]
IC50 [1, 5]: 100 to 1000 nM | IC50 [2, 10]: ≤ 3.16 nM | IC50 [3, 9]: < 100 nM

CC(C)(C)c1nc(-c2cccc(NS(=O)(=O)c3cc(F)ccc3F)c2F)c(-c2ccnc(CCC(=O)N3CCOCC3)n2)s1 [Example 254, N-[3-(2-(1,1-dimethylethyl)-5-{2-[3-(4-morpholinyl)-3-oxopropyl]-4-pyrimidinyl}-1,3-thiazol-4-yl)-2-fluorophenyl]-2,5-difluorobenzenesulfonamide]
IC50 [1, 5]: < 100 nM | IC50 [2, 7]: 3.16 to 31.6 nM | IC50 [3, 9]: 100 to 1000 nM

CS(=O)(=O)CCCNc1nccc(-c2sc(N3CCOCC3)nc2-c2cccc(NS(=O)(=O)c3c(F)cccc3F)c2F)n1 [Example 15, 2,6-Difluoro-N-{2-fluoro-3-[5-(2-{[3-(methylsulfonyl)propyl]amino}-4-pyrimidinyl)-2-(4-morpholinyl)-1,3-thiazol-4-yl]phenyl}benzenesulfonamide]
IC50 [1, 4]: < 100 nM | IC50 [1, 5]: < 100 nM | IC50 [2, 6]: < 100 nM | IC50 [2, 10]: ≤ 3.16 nM | IC50 [3, 8]: < 100 nM | IC50 [3, 9]: < 100 nM

Cc1nccc(-c2sc(C(C)(C)C)nc2-c2cccc(NS(=O)(=O)c3ccoc3)c2Cl)n1 [Example 270, N-{2-chloro-3-[2-(1,1-dimethylethyl)-5-(2-methyl-4-pyrimidinyl)-1,3-thiazol-4-yl]phenyl}-3-furansulfonamide]
IC50 [1, 5]: 100 to 1000 nM | IC50 [2, 10]: ≤ 3.16 nM | IC50 [3, 9]: 100 to 1000 nM

CC(C)(C)c1nc(-c2cccc(NS(=O)(=O)c3cc(F)ccc3F)c2F)c(-c2ccnc(CCCl)n2)s1 [Example 217]
IC50 [1, 5]: < 100 nM | IC50 [2, 6]: < 100 nM | IC50 [2, 10]: ≤ 3.16 nM | IC50 [3, 9]: < 100 nM

Nc1nccc(-c2sc(N3CCOCC3)nc2-c2cccc(NS(=O)(=O)c3ccco3)c2F)n1 [Example 62, N-{3-[5-(2-Amino-4-pyrimidinyl)-2-(4-morpholinyl)-1,3-thiazol-4-yl]-2-fluorophenyl}-2-furansulfonamide]
IC50 [1, 4]: 100 to 1000 nM | IC50 [1, 5]: 100 to 1000 nM | IC50 [2, 6]: < 100 nM | IC50 [2, 10]: ≤ 3.16 nM | IC50 [3, 8]: 100 to 1000 nM | IC50 [3, 9]: 100 to 1000 nM

CC(C)(C)c1nc(-c2cccc(NS(=O)(=O)c3cccnc3)c2F)c(-c2ccnc(N)n2)s1 [Example 230, N-{3-[5-(2-amino-4-pyrimidinyl)-2-(1,1-dimethylethyl)-1,3-thiazol-4-yl]-2-fluorophenyl}-3-pyridinesulfonamide]
IC50 [1, 5]: < 100 nM | IC50 [2, 10]: ≤ 3.16 nM | IC50 [3, 9]: < 100 nM

CC(C)(C)c1nc(-c2c(F)ccc(NS(=O)(=O)c3cccc(F)c3)c2F)c(-c2ccnc(N)n2)s1 [Example 157]
IC50 [1, 4]: < 100 nM | IC50 [1, 5]: < 100 nM | IC50 [2, 6]: < 100 nM | IC50 [2, 10]: ≤ 3.16 nM | IC50 [3, 8]: < 100 nM | IC50 [3, 9]: < 100 nM

CC(C)(C)c1nc(-c2cccc(NS(=O)(=O)c3cc(F)ccc3F)c2Cl)c(-c2ccnc(N)n2)s1 [Example 241, N-{3-[5-(2-amino-4-pyrimidinyl)-2-(1,1-dimethylethyl)-1,3-thiazol-4-yl]-2-chlorophenyl}-2,5-difluorobenzenesulfonamide]
IC50 [1, 5]: < 100 nM | IC50 [2, 10]: ≤ 3.16 nM | IC50 [3, 9]: < 100 nM

Cn1nccc1S(=O)(=O)Nc1cccc(-c2nc(C(C)(C)C)sc2-c2ccnc(N)n2)c1F [Example 282, N-{3-[5-(2-amino-4-pyrimidinyl)-2-(1,1-dimethylethyl)-1,3-thiazol-4-yl]-2-fluorophenyl}-1-methyl-1H-pyrazole-5-sulfonamide hydrochloride]
IC50 [1, 5]: 1000 to 10000 nM | IC50 [2, 10]: 31.6 to 1000 nM | IC50 [3, 9]: 100 to 1000 nM

CC(C)(C)c1nc(-c2cccc(NS(=O)(=O)c3c(F)cccc3F)c2F)c(-c2ccnc(CCS(C)(=O)=O)n2)s1 [Example 251, N-[3-(2-(1,1-dimethylethyl)-5-{2-[2-(methylsulfonyl)ethyl]-4-pyrimidinyl}-1,3-thiazol-4-yl)-2-fluorophenyl]-2,6-difluorobenzenesulfonamide]
IC50 [1, 5]: < 100 nM | IC50 [2, 7]: 3.16 to 31.6 nM | IC50 [3, 9]: < 100 nM

Nc1nccc(-c2sc(C3CCC3)nc2-c2cccc(NS(=O)(=O)c3cc(F)ccc3F)c2F)n1 [Example 117]
IC50 [1, 4]: < 100 nM | IC50 [1, 5]: < 100 nM | IC50 [2, 6]: < 100 nM | IC50 [2, 10]: ≤ 3.16 nM | IC50 [3, 8]: < 100 nM | IC50 [3, 9]: < 100 nM

CC(C)c1nc(-c2ccc(F)c(NS(=O)(=O)c3cc(F)ccc3F)c2)c(-c2ccnc(NC3CC(C)(C)NC(C)(C)C3)n2)s1 [Example 74, 2,5-Difluoro-N-[2-fluoro-5-(2-(1-methylethyl)-5-{2-[(2,2,6,6-tetramethyl-4-piperidinyl)amino]-4-pyrimidinyl}-1,3-thiazol-4-yl)phenyl]benzenesulfonamide]
IC50 [1, 4]: 100 to 1000 nM | IC50 [1, 5]: 100 to 1000 nM | IC50 [2, 6]: < 100 nM | IC50 [2, 10]: ≤ 3.16 nM | IC50 [3, 8]: < 100 nM | IC50 [3, 9]: < 100 nM

CS(=O)(=O)N1CCC(c2nc(-c3cccc(NS(=O)(=O)c4cc(F)ccc4F)c3F)c(-c3ccnc(N)n3)s2)CC1 [Example 101, N-(3-{5-(2-Amino-4-pyrimidinyl)-2-[1-(methylsulfonyl)-4-piperidinyl]-1,3-thiazol-4-yl}-2-fluorophenyl)-2,5-difluorobenzenesulfonamide]
IC50 [1, 4]: < 100 nM | IC50 [1, 5]: < 100 nM | IC50 [2, 6]: < 100 nM | IC50 [2, 10]: ≤ 3.16 nM | IC50 [3, 8]: < 100 nM | IC50 [3, 9]: < 100 nM
